Data taken from US20230000773A1, “NOVEL HEADGROUP LIPID COMPOUNDS AND COMPOSITIONS FOR INTRACELLULAR DELIVERY OF THERAPEUTIC AGENTS” (ModernaTX, Inc., priority 2019, published 2023).

How the values were obtained:
[1] = Surface hydrophobicity by Generalized Polarization by Laurdan (GPL); format: physicochemical; conditions: normalized Generalized Polarization by Laurdan; higher N-GP = less polar surface
Outline: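 LNPs contained ionizable lipid:DSPC:cholesterol:PEG lipid at 50:10:38:2 mol %. Laurdan was post-inserted into the particle surface, and its fluorescence spectrum gave normalized generalized polarization (N-GP); higher N-GP means a less polar surface.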

[2] = Size and polydispersity index of nanoparticles comprising compounds of the disclosure; format: physicochemical; conditions: compound:DSPC:cholesterol:PEG 2 50:10:38:2 mol %
Outline: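 LNPs contained test lipid:DSPC:cholesterol:PEG 2 at 50:10:38:2 mol %. Size and polydispersity index were measured by dynamic light scattering.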

[3] = Encapsulation efficiency (% EE), ribostar; format: physicochemical; conditions: nanoparticles, compound:DSPC:cholesterol:PEG 2 50:10:38:2 mol %
From the text: The efficiency of encapsulation of a therapeutic and/or prophylactic describes the amount of therapeutic and/or prophylactic that is encapsulated or otherwise associated with a lipid nanoparticle (e.g., an empty LNP or a loaded LNP) after preparation, relative to the initial amount provided. The encapsulation efficiency is desirably high (e.g., close to 100%). The encapsulation efficiency may be measured, for example, by comparing the amount of therapeutic and/or prophylactic in a solution containing the lipid nanoparticle (e.g., an empty LNP or a loaded LNP) before and after breaking up the lipid nanoparticle (e.g., an empty LNP or a loaded LNP) with one or more organic solvents or detergents. Fluorescence may be used to measure the amount of free therapeutic and/or prophylactic (e.g., RNA) in a solution. For the lipid nanoparticles (e.g., empty LNPs or loaded LNPs) described herein, the encapsulation efficiency of a therapeutic and/or prophylactic may be at least 50%, for example 50%, 55%, 60%, 65%, 70%, 75%, 80%, 85%, 90%, 91%, 92%, 93%, 94%, 95%, 96%, 97%, 98%, 99%, or 100%. In some embodiments, the encapsulation efficiency may be at least 80%. In certain embodiments, the encapsulation efficiency may be at least 90%. In some embodiments, the encapsulation efficiency of the therapeutic and/or prophylactic agent is between 80% and 100%.
Nanoparticle compositions including a therapeutic and/or prophylactic can be optimized according to the selection of a compound according to Formula (I), (I-1), (A), (A-1), (A-1a), or (A-1b), the selection of additional lipids, the amount of each lipid in the lipid component, and the wt:wt ratio of the lipid component to the therapeutic and/or prophylactic. Nanoparticle compositions including DSPC as a phospholipid, cholesterol as a structural lipid, PEG 2 as a PEG lipid, and a compound according to Formula (I), (I-1), (A), (A-1), (A-1a), or (A-1b) were prepared. The ratios of the lipids were 50:10:38:2 mol % for the lipid according to Formula (I), (I-1), (A), (A-1), (A-1a), or (A-1b):DSPC:cholesterol:PEG 2. Tables 2a, 2b, and 3-5 summarize the characteristics of the formulations.
Table 4 summarizes the surface hydrophobicity of nanoparticles comprising compounds of the disclosure as determined by Generalized Polarization by Laurdan (GPL). Laurdan, a fluorescent aminonaphthalene ketone lipid, was post-inserted into the nanoparticle surface and the fluorescence spectrum of Laurdan was collected to determine the normalized Generalized Polarization (N-GP). Higher N-GP indicates a less polar surface.

[4] = Encapsulation efficiency (% EE), ribogreen; format: physicochemical; conditions: nanoparticles, compound:DSPC:cholesterol:PEG 2 50:10:38:2 mol %
Outline: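 Encapsulated RNA fraction determined by fluorescence of free RNA before and after LNP disruption with detergent or solvent. LNPs contained ionizable lipid:DSPC:cholesterol:PEG lipid at 50:10:38:2 mol %.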

mRNA = mRNA integrity in nanoparticles by RP-IP HPLC (UV 260 nm); format: physicochemical
Experimental: Integrity of mRNA comprised in nanoparticles of the disclosure, i.e., the percentages of intact mRNA, mRNA adducts, and mRNA hydrolysis products, […] (Reverse-Phase Ion-Pairing HPLC) using UV detection at 260 nm. Total purity and impurities are calculated as percent peak area.

serum protein ApoE = test: ApoE binding affinity of nanoparticles (bead binding, flow cytometry)
Experimental: The ApoE binding affinity, i.e., the affinity of binding between nanoparticles comprising compounds of the disclosure and the serum protein ApoE, was determined by binding the nanoparticles to beads, then incubating them with known quantities of […]. The quantity of protein bound to the nanoparticle was then determined by flow cytometry.

hEPO mRNA = test: hEPO expression in CD1-mice after intravenous administration of nanoparticles; format: in vivo; conditions: 6 h after intravenous administration, mRNA dose 0.5 mg/kg, N:P 3.4, compound:DSPC:cholesterol:PEG 2 50:10:38:2
Experimental: The expression of hEPO mRNA in CD1-mice was measured 6 h after intravenous administration of nanoparticles comprising a compound of the disclosure, DSPC, cholesterol, and PEG 2 in a ratio of 50:10:38:2. […] Each composition was dosed to 8 animals at an mRNA dose of 0.5 mg/kg.

[5] = Apparent LNP pKa by 2-(p-toluidino)-6-napthalene sulfonic acid (TNS) assay; format: physicochemical; conditions: pH at half of maximum fluorescence
[6] = Heparin-sepharose binding of nanoparticles
[7] = mRNA integrity after 2 weeks at 25° C., percent peak area
[8] = mRNA integrity at t = 0, percent peak area

SMILES | Average N-GP [1] | PDI [2] | Size (nm) [2] [nm] | % EE (ribostar) [3] [%] | % EE (ribogreen) [4] [%] | Adduct (mRNA; [7]) [%] | Hydrolysis Product (mRNA; [7]) [%] | Intact (mRNA; [7]) [%] | Adduct (mRNA; [8]) [%] | Hydrolysis Product (mRNA; [8]) [%] | Intact (mRNA; [8]) [%] | Median Fluorescence Intensity, PE (serum protein ApoE) | Avg. [hEPO] mIU/mL (hEPO mRNA) [mIU/mL] | LogIC50 (pKa) [5] | Relative % Area Bound by LNP [6] [%]
CCCCCCCCC(CC)OC(=O)CCCCCCCN(CCCCCCCC(=O)OC(CCCCCCCC)CCCCCCCC)CCCNS(=O)(=O)C[C@H]1COCCO1 (stereo partly drawn) [Compound 70, Heptadecan-9-yl 8-((3-((((R)-1,4-dioxan-2-yl)methyl)sulfonamido)propyl)(8-oxo-8-(undecan-3-yloxy)octyl)amino)octanoate] | 0.902 | 0.123 | 72.6 | 60.7 | 89.9 | 12.7 | 50.1 | 37.2 | 10.3 | 40.2 | 49.5 | 121247 | 9.18E+05 | 6.75 | 0
CCCCCCCCC(CC)OC(=O)CCCCCCCN(CCCCCCCC(=O)OC(CCCCCCCC)CCCCCCCC)CCCNS(=O)(=O)Cc1ccon1 (stereo not drawn) [Compound 71, Heptadecan-9-yl 8-((3-((isoxazol-3-ylmethyl)sulfonamido)propyl)(8-oxo-8-(undecan-3-yloxy)octyl)amino)octanoate] | 0.874 | 0.109 | 64.7 | 50.7 | 90.8 | 20.2 | 35.9 | 43.9 | 8.7 | 30.8 | 60.6 | 147047 | 1.50E+06 | 6.54 | 0
CCCCCCCCC(CC)OC(=O)CCCCCCCN(CCCCCCCC(=O)OC(CCCCCCCC)CCCCCCCC)CCCNC1=C(C(N)=O)C(=O)OC1 (stereo not drawn) [Compound 72, Heptadecan-9-yl 8-((3-((4-carbamoyl-5-oxo-2,5-dihydrofuran-3-yl)amino)propyl)(8-oxo-8-(undecan-3-yloxy)octyl)amino)octanoate] | 0.988 | 0.090 | 76.7 | 78.6 | 91.2 | 24.9 | 23.5 | 51.6 | 5.6 | 16.8 | 77.7 | 78901 | 7.36E+05 | 6.39 | 0
